Test [1] relates to rats with myocardial infarction induced by coronary artery ligation. Briefly: J point of ECG in rats with myocardial infarction induced by coronary artery ligation. Type of test: in vivo, SD rats. On the procedure:
[…] Aspirin: 30 mg/kg body-weight. Clean male SD rats were taken and placed in groups randomly according to the body-weight, including pseudo operation group (distilled water), model group (distilled water), aspirin group, (S)-salvianolic acid T low-dose group, (S)-salvianolic acid T high-dose group, and there were 10 rats in each group. Each group of rats were administrated by gastric administration once a day, continuously for 10 days. […] Recording standard II lead ECG at 5 minutes before surgery, 0 s, 1 min, 5 min, 15 min, 1 h, 4 h after the ligation, to investigate the changes of J point of ECG.

For test [2] the test system is unchanged. Briefly: Myocardial infarction rate (TTC staining) after coronary artery ligation. Type of test: in vivo, SD rats. The following applies: for myocardial infarction rate: compared with the model group, P<0.05. The protocol: Clean male SD rats were taken and placed in groups randomly according to the body-weight, including pseudo operation group (distilled water), model group (distilled water), aspirin group, (S)-salvianolic acid T low-dose group, (S)-salvianolic acid T high-dose group, and there were 10 rats in each group. Each group of rats were administrated by gastric administration once a day, continuously for 10 days. […] Recording standard II lead ECG at 5 minutes before surgery, 0 s, 1 min, 5 min, 15 min, 1 h, 4 h after the ligation, to investigate the changes of J point of ECG. Taking out the heart immediately after the end of the experiment, washing away the blood with normal saline, cutting off the atrium and the bottom of the blood vessels, weighing the mass of the ventricle, cutting the ventricle into 5 pieces on average along the atrioventricular groove and putting them into 1% (w/v) TTC solution, dyeing in the water bath at a constant temperature of 37 °C for 5 min, taking digital photos firstly after taking them out, then separating the unstained parts (that is, the infarct parts) and weighing to calculate the percentage of them in the mass of total ventricular (myocardial infarction percentage), and performing t test with ischemia model group. The formula for calculating the infarct percentage is as follows: Infarct percentage (%)=(the mass of pale areas/the mass of the ventricle)×100%

The test system is the same in test [3]. In words: Blood biochemical index of rats with myocardial infarction induced by coronary artery ligation. The format is in vivo, SD rats. The following applies: for CK / CK-MB / LD / MDA / SOD: serum.
Test [4] can be described thus: DPPH free-radical scavenging reaction. On the procedure: Absorbance of the reaction solution was measured at 517 nm. In this study, vitamin C was regarded as a positive control. Free-radical scavenging rate was calculated in accordance with the following equation: Free-radical scavenging rate (%)=[1−Asample/Acontrol)/Acontrol]×100% Wherein, the Asample means the absorbance of the tested samples, and Acontrol means the absorbance of blank control.

Test [5] can be described thus: Determination of reducing capacity (potassium ferricyanide / ferric chloride, absorbance at 700 nm). The protocol:
0.5 ml of 200 mM phosphate buffer (pH6.8) containing different concentrations of the (S)/(R)-salvianolic acid T and 0.5 ml of 1.0% (w/v) potassium ferricyanide solution were sucked respectively and cooled on an ice bath after being heated on a water bath (50[…]) for 20 min. 0.5 ml of 10% trichloroacetic acid solution was added and centrifuged at […] for 10 min. 1.0 ml of the resulting supernatant was taken, into which 1.0 ml of distilled water and 0.2 ml of 0.1% (w/v) ferric chloride solution were added, stood still for 10 min and the absorbance was measured at 700 nm. Meanwhile, the blank experiment was carried out. Vitamin C is a strongly reducing substance, acting as positive control in this study. Reducing capacity of the sample is represented by subtracting the absorbance of the blank control from the absorbance of the tested sample. Thus, it means the higher absorbance, the stronger reducing capacity.

In test [6] the test system is mice pulmonary fibrosis induced by bleomycin. In words: Anti-pulmonary fibrosis experiment in mice induced by bleomycin. Type of test: in vivo, Kunming mice. As to conditions: 3 weeks. On the procedure: Dividing the 40 mice into 4 groups: □ normal control group, given nasal dripping of normal saline, drenched with normal saline; □ model control group:given nasal dripping of bleomycin, drenched with normal saline; □(S)-salvianolic acid T group (16 mg/kg): given nasal dripping of bleomycin, drenched with (S)-salvianolic acid T solution; □(R)-salvianolic acid T group (16 mg/kg): given nasal dripping of bleomycin, drenched with (R)-salvianolic acid T solution; 10 mice in each group.
On the first day of the experiment, the mice were anesthetized with chloral hydrate, each mouse was given disposable nasal dripping of 50 μg bleomycin to establish the pulmonary fibrosis model. On the second day of the experiment, two treatment groups were drenched with (S)/(R)-salvianolic acid T, the model group and the normal group were drenched with equal volume of normal saline, once each day, 3 consecutive weeks. On the 21th day of the experiment, serum was separated from the blood collected from the orbital vein to detect TGF-β1, the mice were killed to take lungs, ground with double distilled water (the ratio of lungs and double distilled water was 1:5 (w/v)) into tissue homogenate, centrifuged to detect the MDA, superoxide dismutase (SOD), catalase (CAT), peroxidase (POD) in the tissues.

The test system of test [7] is L929 cells induced by TGF-β1. In words: Inhibition of L929 cell proliferation induced by TGF-β1 (MTT). The format is cell-based. The following applies: Mus musculus, L929, 72 h, 2 μg/L TGF-β1, 72 h, MTT method. The protocol:
L929 cells with a cell population of 5×10^7/L adjusted by DMEM culture solution containing 10% fetal bovine serum were seeded into 96 well plate, cultured for 24 h. Supplementing the same culture medium containing 2 μg/L TGF-β1 and (S)/(R)-salvianolic acid T of different concentrations. There were 6 multiple pores in each group, final concentration of (S)/(R)-salvianolic acid T was set as 0, 1, 3, 10, 20, 40, 80, 150 μmol/L. Removing medium after being cultured for 72 h, assaying the cell activity by MTT method.
A general note: Tetrazolium assays rely on reduction of a dye to a coloured formazan, in cell work by metabolically active cells.

Where [8] appears, read: high-dose group, dosage 10 mg/kg.
[9] abbreviates: compared with positive control vitamin C.
[10] abbreviates: sample 0.625 μg/ml, 100 μM DPPH, 20 min, 25° C.
Setting [11] is: 16 mg/kg, lung tissue homogenate.

These results are taken from US10626077B2, “Salvianolic acid compound T, preparation method therefor, and use thereof” (TASLY PHARMACEUTICAL GROUP CO., LTD., priority 2013, dated 2020).

Usually IC50 stands for the concentration that inhibits the measured activity by half.

Molecules are shown by their SMILES.

Consider `O=C(/C=C/c1ccc(O)c(O)c1/C(=C\c1ccc(O)c(O)c1)C(=O)O)O[C@@H](Cc1ccc(O)c(O)c1)C(=O)O` [(S)-salvianolic acid T], for which the J point in test [1] (high-dose group, dosage 10 mg/kg, gastric once a day for 10 days, before operation) is −0.014 ± 0.005 mv; in test [1] (high-dose group, dosage 10 mg/kg, 1 min after operation), 0.169 ± 0.033 mv; in test [1] (high-dose group, dosage 10 mg/kg, 5 min after operation), 0.146 ± 0.031 mv; in test [1] (high-dose group, dosage 10 mg/kg, 15 min after operation), 0.160 ± 0.027 mv; in test [1] (high-dose group, dosage 10 mg/kg, 1 h after operation), 0.170 ± 0.014 mv; in test [1] (high-dose group, dosage 10 mg/kg, 4 h after operation), 0.153 ± 0.028 mv. The J point in test [1] (low-dose group, dosage 5 mg/kg, gastric once a day for 10 days, before operation) is recorded as −0.011 ± 0.003 mv; in test [1] (low-dose group, dosage 5 mg/kg, 1 min after operation), 0.176 ± 0.050 mv; in test [1] (low-dose group, dosage 5 mg/kg, 5 min after operation), 0.204 ± 0.010 mv; in test [1] (low-dose group, dosage 5 mg/kg, 15 min after operation), 0.185 ± 0.096 mv; in test [1] (low-dose group, dosage 5 mg/kg, 1 h after operation) it was 0.206 ± 0.036 mv; in test [1] (low-dose group, dosage 5 mg/kg, 4 h after operation) it was 0.194 ± 0.042 mv. The “effect on preventing acute myocardial infarction induced by coronary artery ligation” value in test [2] (high-dose group compared with aspirin group, FIG. 11 heart biopsy) was “equal effect”. The myocardial infarction rate entry in test [2] (high-dose group) is given as “significantly reduce the myocardial infarction rate”. In addition, the “Na^+—K^+-ATPase” value in test [3] (setting [8]) is reported as 0.005 ± 0.006 μmolPi/10^7 RBC/h; in test [3] (low-dose group, dosage 5 mg/kg), 0.004 ± 0.001 μmolPi/10^7 RBC/h. The CK was 0.88 ± 0.22 U/ml in test [3] (setting [8]) and 1.18 ± 0.29 U/ml in test [3] (low-dose group, dosage 5 mg/kg). The CK-MB in test [3] (setting [8]) is given as 846.7 ± 144.2 U/L; in test [3] (low-dose group, dosage 5 mg/kg) it was 970.9 ± 225.1 U/L. Further, the LD in test [3] (setting [8]) is 1.65 ± 0.24 mmol/L; in test [3] (low-dose group, dosage 5 mg/kg), 1.67 ± 0.23 mmol/L. In addition, the MDA was 6.72 ± 1.54 nmol/mL in test [3] (setting [8]); 7.46 ± 1.07 nmol/mL in test [3] (low-dose group, dosage 5 mg/kg); 324 ± 33 µg/g in test [6] (setting [11]). Also, the SOD is listed as 241.7 ± 19.8 U/ml in test [3] (setting [8]); 220.3 ± 32.6 U/ml in test [3] (low-dose group, dosage 5 mg/kg); 57.3 ± 4.9 U/g in test [6] (setting [11]). The “free-radical scavenging compared with vitamin C” value in test [4] (setting [9]) is reported as “much higher free-radical scavenging than that of the vitamin C”. The Free-radical scavenging rate came to 10.32 ± 0.81% in test [4] (setting [10]); 28.77 ± 2.26% in test [4] (sample 1.25 μg/ml); 44.22 ± 1.95% in test [4] (sample 2.5 μg/ml); 86.01 ± 8.92% in test [4] (sample 5 μg/ml); 98.97 ± 5.41% in test [4] (sample 10 μg/ml). In test [5] (setting [9]), the “reducing capacity compared with vitamin C” value was “much stronger than that of vitamin C”. Also, the “reducing capacity (absorbance at 700 nm minus blank control)” value in test [5] (sample 3.125 μg/ml) turned out to be 0.157 ± 0.027; in test [5] (sample 6.25 μg/ml), 0.215 ± 0.011; in test [5] (sample 12.5 μg/ml), 0.039 ± 0.012; in test [5] (sample 25 μg/ml) it was 0.771 ± 0.023; in test [5] (sample 50 μg/ml) it was 1.573 ± 0.036. For the same molecule, the “Serum TGF-β1” value in test [6] (16 mg/kg drenched once each day, day 21) is reported as 263 ± 35 ng/L. In addition, the CAT in test [6] (setting [11]) is on record as 24.9 ± 2.3 U/g. The molecule also came in with a POD in test [6] (setting [11]) of 15.3 ± 2.1 U/g. Further, in test [6] (setting [11]), the “Tissue TGF-β1” value stood at 541 ± 51 pg/g. Also, the midpoint of inhibition in test [7], the IC50, lay at 26.1 µM.

In turn, `CC(=O)Oc1ccccc1C(=O)O` [Aspirin, reference compound] returned a J point in test [1] (aspirin group, dosage 30 mg/kg, gastric once a day for 10 days, before operation) of −0.012 ± 0.005 mv. The molecule also registered a J point in test [1] (aspirin group, dosage 30 mg/kg, 1 min after operation) of 0.172 ± 0.057 mv. In test [1] (aspirin group, dosage 30 mg/kg, 5 min after operation), the J point worked out at 0.184 ± 0.024 mv. The molecule further returned a J point in test [1] (aspirin group, dosage 30 mg/kg, 15 min after operation) of 0.166 ± 0.025 mv. The same molecule yielded a J point in test [1] (aspirin group, dosage 30 mg/kg, 1 h after operation) of 0.169 ± 0.036 mv. Further, in test [1] (aspirin group, dosage 30 mg/kg, 4 h after operation), the J point worked out at 0.172 ± 0.021 mv. The myocardial infarction rate result in test [2] (aspirin group (30 mg/kg)) was “significantly reduce the myocardial infarction rate”. In test [3] (aspirin group, dosage 30 mg/kg), the “Na^+—K^+-ATPase” value was found to be 0.005 ± 0.001 μmolPi/10^7 RBC/h, the CK was found to be 1.01 ± 0.16 U/ml, the CK-MB was 841.9 ± 20.3 U/L and the LD is given as 1.75 ± 0.17 mmol/L. In test [3] (aspirin group, dosage 30 mg/kg), this molecule came in with an MDA of 6.84 ± 0.97 nmol/mL and an SOD of 221.1 ± 24.7 U/ml.

For `O=C1O[C@H]([C@@H](O)CO)C(O)=C1O` [Vitamin C, reference compound], the Free-radical scavenging rate is on record as 8.02 ± 0.47% in test [4] (setting [10]); 15.56 ± 1.81% in test [4] (sample 1.25 μg/ml); 21.32 ± 1.89% in test [4] (sample 2.5 μg/ml); 56.29 ± 5.93% in test [4] (sample 5 μg/ml); 79.51 ± 7.26% in test [4] (sample 10 μg/ml).
